This is an account of results in patent US20240368133A1, “Compounds for the Treatment of Pain, in Particular, Neuropathic Pain, and/or Other Diseases or Disorders that are Associated with AT2R and/or AT2R Mediated Signaling” (Confo Therapeutics N.V., priority 2021, published 2024).

As usually defined, the IC50 is the midpoint of a concentration-inhibition curve.

For one experiment, the target named is human AT2R fused to Cb23 (Homo sapiens, UniProt P50052). Kind of experiment: Radioligand binding assay, displacement of 125I-[Sar1, Ile8]-Angiotensin II, hAT2R Cb23. Particulars: displacement of 125I-[Sar1, Ile8]-Angiotensin II, human AT2R fused to Cb23, HEK-293 cell membrane preparations; read-out: Binding affinity on hAT2R_Cb23 IC50. The procedure, abridged:
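Membranes from HEK-293 cells expressing human AT2R fused to Cb23 were incubated with 0.05 nM 125I-[Sar1, Ile8]-Angiotensin II in 100 μL buffer (50 mM Tris, 5 mM MgCl2, 1 mM EDTA, 0.1% BSA, pH 7.4) for one hour at 25° C. Ligands were tested as eight-point dose-response curves in duplicate, with C21 and Angiotensin II as references.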

For another experiment, the target named is human AT1R (Homo sapiens (Human), UniProt P30556). Kind of experiment: Counterscreen radioligand binding assay, displacement of 125I-[Sar1, Ile8]-Angiotensin II, hAT1R WT. Particulars: for inhibition at 1 µM / inhibition at 10 µM: 125I-[Sar1, Ile8]-Ang II, semi-quantitative score; for inhibition at 1 µM: compound at 1 μM, read-out: % Displaced radioligand at 1 μM; for inhibition at 10 µM: compound at 10 μM, read-out: % Displaced radioligand at 10 μM; for IC50: HEK-293 cell membranes, read-out: Binding affinity On hAT1R IC50. The procedure, abridged:
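Compounds displaced 0.05 nM 125I-[Sar1, Ile8]-Ang II from human AT1R in HEK-293 membranes (1 h, 25° C; Tris/MgCl2/EDTA/BSA buffer, pH 7.4). Readout was filtration and scintillation counting, with non-specific binding set by 10 μM [Sar1]-Ang II. Values are % displacement at 1 μM and […], or IC50 from eight-point four-parameter fits.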

human AT1R, sequence (P30556 whole entry): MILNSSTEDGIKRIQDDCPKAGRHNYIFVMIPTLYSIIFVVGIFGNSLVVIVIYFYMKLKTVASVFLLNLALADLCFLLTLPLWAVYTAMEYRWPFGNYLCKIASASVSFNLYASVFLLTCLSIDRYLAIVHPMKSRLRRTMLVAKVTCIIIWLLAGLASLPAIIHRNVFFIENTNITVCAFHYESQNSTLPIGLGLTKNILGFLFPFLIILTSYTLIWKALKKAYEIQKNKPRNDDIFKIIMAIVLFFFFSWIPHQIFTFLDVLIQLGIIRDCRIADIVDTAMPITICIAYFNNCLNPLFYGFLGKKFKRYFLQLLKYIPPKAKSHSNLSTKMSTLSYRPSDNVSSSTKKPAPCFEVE
human AT2R fused to Cb23, sequence (P50052 whole entry, looked up, the tested form may be a part): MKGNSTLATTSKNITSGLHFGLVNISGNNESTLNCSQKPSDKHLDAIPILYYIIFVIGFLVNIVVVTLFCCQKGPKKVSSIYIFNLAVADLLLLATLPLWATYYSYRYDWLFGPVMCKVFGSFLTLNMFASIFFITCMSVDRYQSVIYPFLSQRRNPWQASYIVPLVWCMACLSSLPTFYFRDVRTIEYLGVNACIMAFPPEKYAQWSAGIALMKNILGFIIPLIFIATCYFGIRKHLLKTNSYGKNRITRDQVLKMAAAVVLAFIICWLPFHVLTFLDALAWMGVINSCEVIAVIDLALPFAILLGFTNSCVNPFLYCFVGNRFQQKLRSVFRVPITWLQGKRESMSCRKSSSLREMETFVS

As for `CCc1nc2ccc(N(Cc3ccccc3)C(=O)c3cccs3)cc2c(=O)n1CC1CCN(c2ccccc2-c2nn[nH]n2)CC1` [Compound A-246, N-benzyl-N-[2-ethyl-4-oxo-3-[[1-[2-(2H-tetrazol-5-yl)phenyl]-4-piper-idyl]methyl]quin-azolin-6-yl]thio-phene-2-carbox-amide], the IC50 at human AT2R fused to Cb23 stood at 102 nM. At human AT1R, the inhibition at 1 µM is less than 30%, the inhibition at 10 µM lay in the range of 30 to 50% and the IC50 was found to be 26700 nM.

On to `c1ccc2sc(CN3CCN(c4nc(C5CC5)ccc4-c4nn[nH]n4)CC3)nc2c1` [Compound A-145, 2-[[4-[6-cycloprop-yl-3-(2H-tetrazol-5-yl)-2-pyridyl]piper-azin-1-yl]methyl]-1,3-benzothiazole], for which the IC50 on human AT2R fused to Cb23 was 8220 nM. Also, on human AT1R, the inhibition at 1 µM was less than 30% and the inhibition at 10 µM is less than 30%.

As for `Cc1ccnc(CN2CCN(c3cc(CC(C)C)cc(F)c3-c3nn[nH]n3)CC2)c1` [Compound A-204, 1-[3-fluoro-5-isobutyl-2-(2H-tetrazol-5-yl)phen-yl]-4-[(4-methyl-2-pyridyl)methyl]-piperazine], the 50% inhibitory concentration (IC50) at human AT2R fused to Cb23 stood at 212 nM. Also, on human AT1R, the inhibition at 1 µM is less than 30% and the inhibition at 10 µM is less than 30%.

For `FC(F)COc1ccc(-c2nn[nH]n2)c(N2CCN(Cc3nc4ccccc4s3)CC2)c1` [Compound A-55, 2-[[4-[5-(2,2-difluoroethoxy)-2-(2H-tetrazol-5-yl)-phenyl]piperazin-1-yl]methyl]-1,3-benzothiazole], on human AT2R fused to Cb23, the IC50 was found to be 2270 nM. On human AT1R, the inhibition at 1 µM is less than 30%, the inhibition at 10 µM was less than 30% and the concentration for half-maximal inhibition (IC50) worked out at 39700 nM.

Take `CC(C)Cc1cc(F)c(-c2nn[nH]n2)c(N2CC3CCC(C2)N3Cc2cccnn2)c1` [Compound A-190, 3-[3-fluoro-5-isobutyl-2-(2H-tetrazol-5-yl)phen-yl]-8-(pyridazin-3-ylmethyl)-3,8-diaza-bicyclo[3.2.1]octane]: the IC50 on human AT2R fused to Cb23 was 1350 nM. For the same compound, at human AT1R, the inhibition at 1 µM was less than 30% and the inhibition at 10 µM is less than 30%.

Regarding `CC(C)Cc1ccc(-c2nn[nH]n2)c(C2CCN(Cc3cccnn3)CC2)c1` [Compound A-234, 3-[[4-[5-isobutyl-2-(2H-tetrazol-5-yl)-phenyl]-1-piperid-yl]methyl]pyrid-azine], the half-inhibitory concentration (IC50) on human AT2R fused to Cb23 is 2020 nM. On human AT1R, the inhibition at 1 µM is less than 30% and the inhibition at 10 µM is less than 30%.

`CC(C)Cc1cc(F)c(-c2nn[nH]n2)c(N2CCN(Cc3ncc(F)cc3Cl)CC2)c1` [Compound A-206, 1-[(3-chloro-5-fluoro-2-pyridyl)-methyl]-4-[3-fluoro-5-isobutyl-2-(2H-tetrazol-5-yl)phen-yl]piperazine]: the IC50 on human AT2R fused to Cb23 was 1080 nM. In addition, on human AT1R, the inhibition at 1 µM is less than 30% and the inhibition at 10 µM was less than 30%.

With `CC(C)Cc1ccc(-c2nn[nH]n2)c(N2CCN(Cc3nccs3)CC2)c1` [Compound A-97, 2-[[4-[5-isobutyl-2-(2H-tetrazol-5-yl)phenyl]piperazin-1-yl]methyl]thiazole], the IC50 at human AT2R fused to Cb23 was 757 nM. Moreover, at human AT1R, the inhibition at 1 µM was less than 30% and the inhibition at 10 µM is less than 30%.

As to `CC(C)Cc1cc(F)c(-c2nn[nH]n2)c(N2CCN(Cc3nc4ccccc4c(=O)[nH]3)CC2)c1` [Compound A-154, 2-[[4-[3-fluoro-5-isobutyl-2-(2H-tetrazol-5-yl)phen-yl]piperazin-1-yl]-methyl]-3H-quin-azolin-4-one], the 50% inhibitory concentration (IC50) at human AT2R fused to Cb23 is 160 nM. On human AT1R, the inhibition at 1 µM was less than 30% and the inhibition at 10 µM was less than 30%.

Take `CC(C)Oc1cc(F)c(-c2nn[nH]n2)c(N2CCN(Cc3nc4ccccc4c(=O)[nH]3)CC2)c1` [Compound A-151, 2-[[4-[3-fluoro-5-isopropoxy-2-(2H-tetrazol-5-yl)phen-yl]piperazin-1-yl]-methyl]-3H-quin-azolin-4-one]: the 50% inhibitory concentration (IC50) on human AT2R fused to Cb23 was 6790 nM. Further, at human AT1R, the inhibition at 1 µM is less than 30% and the inhibition at 10 µM was less than 30%.

In the case of `CNc1cc(-c2nn[nH]n2)c(N2CCN(Cc3cccnn3)CC2)cc1CC(C)C` [Compound A-170, 2-isobutyl-N-meth-yl-4-[4-(pyridazin-3-ylmethyl)piper-azin-1-yl]-5-(2H-tetrazol-5-yl)aniline], the half-inhibitory concentration (IC50) at human AT2R fused to Cb23 was 12100 nM. Moreover, on human AT1R, the inhibition at 1 µM is less than 30% and the inhibition at 10 µM is less than 30%.

For `CC(C)Cc1ccc(-c2nn[nH]n2)c(N2CC3CN(Cc4cccnn4)CC3C2)c1` (stereo not shown) [Compound A-232, 5-[5-isobutyl-2-(2H-tetrazol-5-yl)-phenyl]-2-(pyrid-azin-3-ylmethyl)-1,3,3a,4,6,6a-hexahydropyrrolo-[3,4-c]pyrrole], the IC50 on human AT2R fused to Cb23 was 2670 nM. On human AT1R, the inhibition at 1 µM is less than 30% and the inhibition at 10 µM was less than 30%.

Take `CC(C)Cc1cc(F)c(-c2nn[nH]n2)c(N2CCCN(Cc3cccnn3)CC2)c1` [Compound A-231, 1-[3-fluoro-5-isobutyl-2-(2H-tetrazol-5-yl)phenyl]-4-(pyridazin-3-ylmethyl)-1,4-diazepane]: the 50% inhibitory concentration (IC50) on human AT2R fused to Cb23 is 368 nM. Further, on human AT1R, the inhibition at 1 µM was less than 30%, the inhibition at 10 µM is 30 to 50% and the IC50 worked out at 18900 nM.

Turning to `CCS(=O)(=O)NC(=O)c1ccccc1N1CCN(Cc2nc3ccccc3n2C)CC1` [Compound A-13, N-ethylsulfonyl-2-[4-[(1-methylbenzimidazol-2-yl)methyl]piperazin-1-yl]benzamide], the 50% inhibitory concentration (IC50) on human AT2R fused to Cb23 is 13600 nM. Besides, on human AT1R, the inhibition at 1 µM was less than 30% and the inhibition at 10 µM was less than 30%.

As to `Cc1cc(-c2nn[nH]n2)c(N2CCN(Cc3nc4ccccc4s3)CC2)cc1CC(C)C` [Compound A-134, 2-[[4-[5-isobutyl-4-methyl-2-(2H-tetrazol-5-yl)phen-yl]piperazin-1-yl]-methyl]-1,3-benzo-thiazole], the half-maximal inhibitory concentration (IC50) on human AT2R fused to Cb23 came to 9660 nM. Further, at human AT1R, the inhibition at 1 µM is less than 30% and the inhibition at 10 µM is less than 30%.

Regarding `CC(C)Cc1cc(C2CC2)c(-c2nn[nH]n2)c(N2CCN(Cc3nc4ccccc4s3)CC2)c1` [Compound A-137, 2-[[4-[3-cycloprop-yl-5-isobutyl-2-(2H-tetrazol-5-yl)-phenyl]piperazin-1-yl]methyl]-1,3-benzothiazole], the half-maximal inhibitory concentration (IC50) on human AT2R fused to Cb23 stood at 16 nM. Further, at human AT1R, the inhibition at 1 µM is less than 30% and the inhibition at 10 µM is less than 30%.

With `CCc1ccc(-c2nn[nH]n2)c(N2CCN(Cc3nc4ccccc4s3)CC2)n1` [Compound A-142, 2-[[4-[6-ethyl-3-(2H-tetrazol-5-yl)-2-pyridyl]piperazin-1-yl]methyl]-1,3-benzothiazole], the IC50 on human AT2R fused to Cb23 is 9110 nM. On human AT1R, the inhibition at 1 µM was less than 30% and the inhibition at 10 µM was 30 to 50%.

With `CC(C)Oc1ccc(-c2nn[nH]n2)c(N2CCC(Cc3nc4ccccc4n3C)CC2)c1` [Compound A-25, 2-[[1-[5-isopropoxy-2-(2H-tetrazol-5-yl)phenyl]-4-piperidyl]methyl]-1-methyl-benzimid-azole], the half-inhibitory concentration (IC50) on human AT2R fused to Cb23 amounted to 8310 nM. Moreover, on human AT1R, the inhibition at 1 µM is less than 30% and the inhibition at 10 µM is less than 30%.

Turning to `CC(C)Cc1ccc(-c2nn[nH]n2)c(N2CCN(c3nc4ccccc4s3)CC2)c1` [Compound A-49, 2-[4-[5-isobutyl-2-(2H-tetrazol-5-yl)-phenyl]piperazin-1-yl]-1,3-benzo-thiazole], the half-inhibitory concentration (IC50) on human AT2R fused to Cb23 stood at 2340 nM. For the same compound, at human AT1R, the inhibition at 1 µM is less than 30%, the inhibition at 10 µM was 30 to 50% and the concentration for half-maximal inhibition (IC50) is 20300 nM.

In the case of `CCOc1cc(-c2nn[nH]n2)c(N2CCN(Cc3nc4ccccc4s3)CC2)cc1OC(C)C` [Compound A-123, 2-[[4-[4-ethoxy-5-isopropoxy-2-(2H-tetrazol-5-yl)phen-yl]piperazin-1-yl]-methyl]-1,3-benzo-thiazole], the IC50 at human AT2R fused to Cb23 was 4880 nM. On human AT1R, the inhibition at 1 µM was less than 30% and the inhibition at 10 µM was less than 30%.

`CC(C)Cc1cc(N2CCN(Cc3nc4ccccc4s3)CC2)c(-c2nn[nH]n2)cc1F` [Compound A-133, 2-[[4-[4-fluoro-5-isobutyl-2-(2H-tetrazol-5-yl)phen-yl]piperazin-1-yl]-methyl]-1,3-benzo-thiazole]: the IC50 at human AT2R fused to Cb23 was 1190 nM. Further, at human AT1R, the inhibition at 1 µM was less than 30% and the inhibition at 10 µM is less than 30%.

With `CC(C)Cc1ccc(-c2nn[nH]n2)c(N2CC(NCc3cccnn3)C2)c1` [Compound A-236, 1-(5-isobutyl-2-(2H-tetrazol-5-yl)-phenyl)-N-(pyrid-azin-3-ylmethyl)-azetidin-3-amine], the IC50 on human AT2R fused to Cb23 was 1010 nM. On human AT1R, the inhibition at 1 µM was less than 30% and the inhibition at 10 µM is less than 30%.

On to `Cc1cnc(CN2CCN(c3cc(CC(C)C)ccc3-c3nn[nH]n3)CC2)s1` [Compound A-106, 2-[[4-[5-isobutyl-2-(2H-tetrazol-5-yl)phenyl]piperazin-1-yl]methyl]-5-methyl-thiazole], for which the 50% inhibitory concentration (IC50) at human AT2R fused to Cb23 amounted to 35.5 nM. On human AT1R, the inhibition at 1 µM was less than 30% and the inhibition at 10 µM is less than 30%.

In the case of `CCS(=O)(=O)NC(=O)c1ccc(CC(C)C)cc1N1CCN(Cc2nc3ccccc3s2)CC1` [Compound A-36, 2-[4-(1,3-benzo-thiazol-2-ylmethyl)-piperazin-1-yl]-N-ethylsulfonyl-4-isobutyl-benzamide], the half-maximal inhibitory concentration (IC50) at human AT2R fused to Cb23 worked out at 1420 nM. On human AT1R, the inhibition at 1 µM was less than 30% and the inhibition at 10 µM was less than 30%.
